Results on one compound are retold here after patent US8173668B1 (Alcon Research, Ltd., priority 2007, dated 2012).

The target of assay [1] is T1, B2-receptors in h-CM cells (Homo sapiens, UniProt P30411).
T1 construct: B2-receptor proteins in h-TM, h-CM and h-NPE cells; endogenous in cells; host or cells: human trabecular meshwork (h-TM), human ciliary muscle (h-CM) and human non-pigmented ciliary epithelial (h-NPE) cells
T1 sequence (P30411 1-391): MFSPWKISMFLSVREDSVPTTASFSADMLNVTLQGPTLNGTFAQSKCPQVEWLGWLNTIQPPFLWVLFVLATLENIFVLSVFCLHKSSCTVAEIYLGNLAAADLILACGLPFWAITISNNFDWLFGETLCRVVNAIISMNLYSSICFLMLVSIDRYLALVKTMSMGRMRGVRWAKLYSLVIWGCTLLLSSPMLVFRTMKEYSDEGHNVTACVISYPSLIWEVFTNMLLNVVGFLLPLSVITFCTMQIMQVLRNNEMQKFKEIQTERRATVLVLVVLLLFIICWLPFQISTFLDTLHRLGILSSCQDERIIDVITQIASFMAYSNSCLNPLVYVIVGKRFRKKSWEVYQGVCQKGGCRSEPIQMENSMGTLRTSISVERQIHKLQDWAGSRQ
The experiment in a line: [Ca2+]i mobilization (FLIPR) in h-CM cells, agonist mode. It is filed as cell-based. The settings on record: h-CM cells, mean ± SEM. As for the experimental part:
On the day of the experiment, one vial of FLIPR Calcium Assay Kit dye is re-suspended in 50 mL of a FLIPR buffer consisting of Hank's Balanced Salt Solution (HBSS), 20 mM HEPES, and 2.5 mM probenecid, pH 7.4. Cells are loaded with the calcium-sensitive dye by addition of an equal volume (50 μL) to each well of the 96-well plate and incubated with dye for 1 h at 23° C. After this time, the test compound plate and cell plate are placed in the FLIPR instrument. At the beginning of an experimental run, a signal test is performed to check the basal fluorescence signal from the dye-loaded cells and the uniformity of the signal across the plate. The basal fluorescence is adjusted between 8000-12000 counts by modifying the exposure time, the camera F-stop, or the laser power. Instrument settings for a typical assay are the following: laser power 0.3-0.6 W, camera F-stop F/2, and exposure time 0.4 sec.
Fluorescence data are collected in real-time at 1.0 sec intervals for the first 60 secs and at 6.0 sec intervals for an additional 120 secs. […] The data are then analyzed using an automated, iterative, sigmoidal curve-fitting computer program to obtain the potency and intrinsic activities of the test agents as previously described (Sharif et al. J. Pharmacol. Exp. Ther. 286: 1094-1102, 1998; Sharif et al. Invest. Ophthalmol. Vis. Sci. 39:2562-2571, 1998; Kelly et al. J. Pharmacol. Exp. Ther. 304: 238-245, 2003). The sources of materials and reagents for such assays can be found in the references cited above.

The next assay relates to h-CM cells. Put plainly: MMP activity in h-CM cells after 24 hour exposure. It counts as cell-based, human. The settings on record: 1 μM. As for the experimental part: As with FP-class prostanoids, the IOP-lowering effects of BK may involve the stimulation of production of various MMPs that in turn digest the extracellular matrix (ECM) to promote outflow and thus lower IOP (Mietz et al., Invest. Ophthalmol. Vis. Sci. 44: 5182-5188, 2003; Webb et al., J. Ocular Pharmacol. Ther. 22: 310-316, 2006). Cells isolated from human or animal ocular or non-ocular tissues, or cells expressing recombinant (preferably human) BK receptors are seeded in 48-wells culture plates and allowed to reach confluence. […] BK (100 nM) can be used a positive control compound. After this time the supernatant from each well is concentrated 20-fold (Centricon Concentrators; Millipore Corp., Bedford, Mass.). Equivalent volumes of media are then loaded onto 12% sodium dodicyl sulfate polyacrylamide gels, where the secreted proteins are separated according to their molecular weights by standard SDS-polyacrylamide gel electrophoresis protocols and transferred onto nitrocellulose paper. The level of MMP-1, MMP-2, MMP-3 and MMP-9 is then determined by immunoblot analysis with rabbit polyclonal anti-MMP antibodies. Bands are visualized by the addition of anti-rabbit horseradish peroxidase-conjugated secondary antibodies (New England Biolabs, Inc.; Beverly, Mass.) and enhanced chemiluminescent reagents (Pierce Biotechnology, Inc., Rockford, Ill.) (Mietz et al., Invest. Ophthalmol. Vis. Sci. 44: 5182-5188, 2003; Webb et al., J. Ocular Pharmacol. Ther. 22: 310-316, 2006). BK agonists should stimulate the production of some or all of MMP-1, MMP-2, MMP-3 and MMP-9. […] However, BK agonists with lower potencies than the above limits, whether partial or full agonists, can still be considered useful ocular hypotensive agents and may be useful as such.
Enhancement of such MMP synthesis and release by h-CM in response to FR-190997 may explain the efficacious IOP-lowering observed with this BK agonist in the glaucomatous monkey eyes (see below).

Assay [2] relates to hypertensive eyes of cynomolgus monkeys. The experiment in a line: IOP in lasered (hypertensive) eyes of cynomolgus monkeys, single dose (FIG. 9). It counts as in vivo. The settings on record: IOP at 8, 25 and 27.5 hours. The method, then:
Hours 5 and 8 were conscious IOPs. Hours 25 and 27.5 were made under sedation. […] Error bars indicate standard deviations.
Intraocular pressure (IOP) was determined with an Alcon Pneumatonometer (Alcon Laboratories, Inc., Fort Worth, Tex.) after light corneal anesthesia with 0.1% proparacaine. Right eyes were hypertensive as a result of laser trabeculoplasty. After a baseline IOP measurement, FR-190997 was instilled in the right eyes only of 12 cynomolgus monkeys. Vehicle was instilled in the right eyes of 5-6 additional animals. Subsequent IOP measurements were taken at 8, 25, and 27.5 hours. IOP measurements are also taken on left eyes (normotensive and untreated) at each of these time points. The percent change in IOP from baseline was determined for each animal for every IOP measurement (Sharif et al. J. Ocular Pharmacol. Ther. 17: 305-317, 2001; May et al., J Pharmacol Exp Ther. 306: 301-309, 2003; Sharif et al. Invest. Ophthalmol. Vis. Res. 47: 4001-4010, 2006). Group mean and standard error of the mean (SEM) were calculated for each time point.

The Emax is the maximal effect, on the per cent scale that the assay sets. The term EC50 denotes the concentration giving half of the maximal effect. Turning to `CNC(=O)c1ccc(/C=C/C(=O)NCC(=O)N(C)c2ccc(Cl)c(COc3cccc4c(OCc5ccccn5)cc(C)nc34)c2Cl)cc1` [FR-190997], the Emax in assay [1] (read-out: Intrinsic Activity (Emax, % max relative to BK)) came out at 63%. In addition, in assay [1] (read-out: Potency (EC50), [Ca2+]i mobilization), the half-maximal effective concentration (EC50) was found to be 174 ± 21 nM. Besides, in the assay with h-CM cells, the MMP-1 activity came out at 59 % above basal levels, the MMP-2 activity entry is “not MMP-2 activity” and the MMP-3 activity is 96 % above basal levels. In assay [2], the “effect on IOP compared with vehicle” value is “lowered IOP compared with vehicle”.
